According to the supplement of paper PMC11208160:

Test: recombinant barcode read abundance after kanamycin selection (control-corrected) (log10(CPM+1)); higher = more efficient recombination; sequences stand for … in AGTGCAGAGAAAATCGGCCAGTTTTCTCTGCCTGCAGTCCGCATGCCGT…ATTTATGCAGCGGACTGCCTTTCTCCCAAAGTGATAAACCGGACAGTATCATGGACCGGTTTTCCCGGTAATCCGTATTTGCAAGGTTGGTTTCACT; site = the 11-nt target
How it was run: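 Recombination efficiency was calculated from barcode counts at recombinant junctions, normalized to counts per million, averaged and corrected by the control. Each value is given as log10(CPM+1). The constructs were Gibson-cloned oligos (promoter, target, barcode, J23119-driven first 104 bridge RNA bases) in a vector with the remaining 73 bp and a T7-inducible recombinase, co-electroporated into E. coli with a donor plasmid and plated in duplicate on chloramphenicol/ampicillin LB agar (control) or chloramphenicol/ampicillin/kanamycin with 0.1 mM IPTG.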

| Sequence | recombinant barcode read abundance (log10) |
| --- | --- |
| CGGTCCCTGTGGGTTCTAACCTGTTGCCAAG [CGGTCCCCTTG_LTGcore_TG_RTGcore_CT] (site CGGTCCCCTTG) (LTG core: TG, RTG core: CT) | 0.0242 |
| CGGTCCCTTTGGGTTCTAACCTGTTGCCAAA [CGGTCCCCTTG_LTGcore_TT_RTGcore_TT] (site CGGTCCCCTTG) (LTG core: TT, RTG core: TT) | 0.0728 |
| GAGCCCAAATGGGTTCTAACCTGTTGCCTAG [GAGCCCACTAG_LTGcore_AA_RTGcore_CT] (site GAGCCCACTAG) (LTG core: AA, RTG core: CT) | 0.0475 |
| GAGCCCACTTGGGTTCTAACCTGTTGCCTCA [GAGCCCACTAG_LTGcore_CT_RTGcore_TG] (site GAGCCCACTAG) (LTG core: CT, RTG core: TG) | 0.593 |
| GAGCCCACTTGGGTTCTAACCTGTTGCCTCG [GAGCCCACTAG_LTGcore_CT_RTGcore_CG] (site GAGCCCACTAG) (LTG core: CT, RTG core: CG) | 0.1 |
| GAGCCCACTTGGGTTCTAACCTGTTGCCTTA [GAGCCCACTAG_LTGcore_CT_RTGcore_TA] (site GAGCCCACTAG) (LTG core: CT, RTG core: TA) | 0.296 |
| GAGCCCAGATGGGTTCTAACCTGTTGCCTAG [GAGCCCACTAG_LTGcore_GA_RTGcore_CT] (site GAGCCCACTAG) (LTG core: GA, RTG core: CT) | 0.163 |
| GAGCCCAGATGGGTTCTAACCTGTTGCCTTC [GAGCCCACTAG_LTGcore_GA_RTGcore_GA] (site GAGCCCACTAG) (LTG core: GA, RTG core: GA) | 0.057 |
| GAGCCCATATGGGTTCTAACCTGTTGCCTAG [GAGCCCACTAG_LTGcore_TA_RTGcore_CT] (site GAGCCCACTAG) (LTG core: TA, RTG core: CT) | 0.101 |
| GAGCCCATGTGGGTTCTAACCTGTTGCCTAG [GAGCCCACTAG_LTGcore_TG_RTGcore_CT] (site GAGCCCACTAG) (LTG core: TG, RTG core: CT) | 0.0858 |
| GAGCCCATTTGGGTTCTAACCTGTTGCCTAG [GAGCCCACTAG_LTGcore_TT_RTGcore_CT] (site GAGCCCACTAG) (LTG core: TT, RTG core: CT) | 0.0489 |
| GAGGCCTAATGGGTTCTAACCTGTTGCCAAG [GAGGCCTCTTG_LTGcore_AA_RTGcore_CT] (site GAGGCCTCTTG) (LTG core: AA, RTG core: CT) | 0.153 |
| GAGGCCTAGTGGGTTCTAACCTGTTGCCAAG [GAGGCCTCTTG_LTGcore_AG_RTGcore_CT] (site GAGGCCTCTTG) (LTG core: AG, RTG core: CT) | 0.106 |
| GAGGCCTAGTGGGTTCTAACCTGTTGCCACT [GAGGCCTCTTG_LTGcore_AG_RTGcore_AG] (site GAGGCCTCTTG) (LTG core: AG, RTG core: AG) | 0.159 |
| GAGGCCTCGTGGGTTCTAACCTGTTGCCAAG [GAGGCCTCTTG_LTGcore_CG_RTGcore_CT] (site GAGGCCTCTTG) (LTG core: CG, RTG core: CT) | 0.218 |
| GAGGCCTCTTGGGTTCTAACCTGTTGCCAAG [GAGGCCTCTTG_LTGcore_CT_RTGcore_CT] (site GAGGCCTCTTG) (LTG core: CT, RTG core: CT) | 1.82 |
| GAGGCCTCTTGGGTTCTAACCTGTTGCCACA [GAGGCCTCTTG_LTGcore_CT_RTGcore_TG] (site GAGGCCTCTTG) (LTG core: CT, RTG core: TG) | 0.453 |
| GAGGCCTCTTGGGTTCTAACCTGTTGCCACT [GAGGCCTCTTG_LTGcore_CT_RTGcore_AG] (site GAGGCCTCTTG) (LTG core: CT, RTG core: AG) | 0.379 |
| GAGGCCTCTTGGGTTCTAACCTGTTGCCAGG [GAGGCCTCTTG_LTGcore_CT_RTGcore_CC] (site GAGGCCTCTTG) (LTG core: CT, RTG core: CC) | 0.236 |
| GAGGCCTCTTGGGTTCTAACCTGTTGCCAGT [GAGGCCTCTTG_LTGcore_CT_RTGcore_AC] (site GAGGCCTCTTG) (LTG core: CT, RTG core: AC) | 0.0794 |
| GAGGCCTCTTGGGTTCTAACCTGTTGCCATA [GAGGCCTCTTG_LTGcore_CT_RTGcore_TA] (site GAGGCCTCTTG) (LTG core: CT, RTG core: TA) | 0.267 |
| GAGGCCTCTTGGGTTCTAACCTGTTGCCATC [GAGGCCTCTTG_LTGcore_CT_RTGcore_GA] (site GAGGCCTCTTG) (LTG core: CT, RTG core: GA) | 0.252 |
| GAGGCCTGTTGGGTTCTAACCTGTTGCCAAC [GAGGCCTCTTG_LTGcore_GT_RTGcore_GT] (site GAGGCCTCTTG) (LTG core: GT, RTG core: GT) | 0.104 |

| Sequence | recombinant barcode read abundance (log10) |
| --- | --- |
| GAGGCCTTCTGGGTTCTAACCTGTTGCCAAG [GAGGCCTCTTG_LTGcore_TC_RTGcore_CT] (site GAGGCCTCTTG) (LTG core: TC, RTG core: CT) | 0.0445 |
| GAGGCCTTCTGGGTTCTAACCTGTTGCCAGA [GAGGCCTCTTG_LTGcore_TC_RTGcore_TC] (site GAGGCCTCTTG) (LTG core: TC, RTG core: TC) | 0.104 |
| GAGGCCTTGTGGGTTCTAACCTGTTGCCACA [GAGGCCTCTTG_LTGcore_TG_RTGcore_TG] (site GAGGCCTCTTG) (LTG core: TG, RTG core: TG) | 0.014 |
| GAGGCCTTTTGGGTTCTAACCTGTTGCCAAA [GAGGCCTCTTG_LTGcore_TT_RTGcore_TT] (site GAGGCCTCTTG) (LTG core: TT, RTG core: TT) | 0.0543 |
| GAGTCCAATTGGGTTCTAACCTGTTGCGTAT [GAGTCCACTAC_LTGcore_AT_RTGcore_AT] (site GAGTCCACTAC) (LTG core: AT, RTG core: AT) | 0.0548 |
| GAGTCCACATGGGTTCTAACCTGTTGCGTTG [GAGTCCACTAC_LTGcore_CA_RTGcore_CA] (site GAGTCCACTAC) (LTG core: CA, RTG core: CA) | 0.022 |
| GAGTCCACTTGGGTTCTAACCTGTTGCGTAA [GAGTCCACTAC_LTGcore_CT_RTGcore_TT] (site GAGTCCACTAC) (LTG core: CT, RTG core: TT) | 0.027 |
| GAGTCCAGGTGGGTTCTAACCTGTTGCGTAG [GAGTCCACTAC_LTGcore_GG_RTGcore_CT] (site GAGTCCACTAC) (LTG core: GG, RTG core: CT) | 0.689 |
| GAGTCCATGTGGGTTCTAACCTGTTGCGTCA [GAGTCCACTAC_LTGcore_TG_RTGcore_TG] (site GAGTCCACTAC) (LTG core: TG, RTG core: TG) | 0.101 |
| GAGTCCTCATGGGTTCTAACCTGTTGCCTTG [GAGTCCTCTAG_LTGcore_CA_RTGcore_CA] (site GAGTCCTCTAG) (LTG core: CA, RTG core: CA) | 0.185 |
| GAGTCCTCCTGGGTTCTAACCTGTTGCCTAG [GAGTCCTCTAG_LTGcore_CC_RTGcore_CT] (site GAGTCCTCTAG) (LTG core: CC, RTG core: CT) | 0.191 |
| GAGTCCTCGTGGGTTCTAACCTGTTGCCTCG [GAGTCCTCTAG_LTGcore_CG_RTGcore_CG] (site GAGTCCTCTAG) (LTG core: CG, RTG core: CG) | 0.0506 |
| GAGTCCTCTTGGGTTCTAACCTGTTGCCTAG [GAGTCCTCTAG_LTGcore_CT_RTGcore_CT] (site GAGTCCTCTAG) (LTG core: CT, RTG core: CT) | 2.17 |
| GAGTCCTCTTGGGTTCTAACCTGTTGCCTGA [GAGTCCTCTAG_LTGcore_CT_RTGcore_TC] (site GAGTCCTCTAG) (LTG core: CT, RTG core: TC) | 1.3 |
| GAGTCCTCTTGGGTTCTAACCTGTTGCCTTA [GAGTCCTCTAG_LTGcore_CT_RTGcore_TA] (site GAGTCCTCTAG) (LTG core: CT, RTG core: TA) | 1.48 |
| GAGTCCTCTTGGGTTCTAACCTGTTGCCTTC [GAGTCCTCTAG_LTGcore_CT_RTGcore_GA] (site GAGTCCTCTAG) (LTG core: CT, RTG core: GA) | 1.24 |
| GAGTCCTGCTGGGTTCTAACCTGTTGCCTGC [GAGTCCTCTAG_LTGcore_GC_RTGcore_GC] (site GAGTCCTCTAG) (LTG core: GC, RTG core: GC) | 0.333 |
| GAGTCCTGTTGGGTTCTAACCTGTTGCCTAC [GAGTCCTCTAG_LTGcore_GT_RTGcore_GT] (site GAGTCCTCTAG) (LTG core: GT, RTG core: GT) | 0.0554 |
| GAGTCCTTATGGGTTCTAACCTGTTGCCTAG [GAGTCCTCTAG_LTGcore_TA_RTGcore_CT] (site GAGTCCTCTAG) (LTG core: TA, RTG core: CT) | 0.414 |
| GCGCGACACTGGGTTCTAACCTGTTGCTTGT [GCGCGACCTAA_LTGcore_AC_RTGcore_AC] (site GCGCGACCTAA) (LTG core: AC, RTG core: AC) | 0.147 |
| GCGCGACCATGGGTTCTAACCTGTTGCTTAG [GCGCGACCTAA_LTGcore_CA_RTGcore_CT] (site GCGCGACCTAA) (LTG core: CA, RTG core: CT) | 0.422 |
| GCGCGACCCTGGGTTCTAACCTGTTGCTTAG [GCGCGACCTAA_LTGcore_CC_RTGcore_CT] (site GCGCGACCTAA) (LTG core: CC, RTG core: CT) | 0.907 |
